Source: PubChem BioAssay AID1963852 (Molecular Pharmacology Branch, DTP, NCI, 2024)
“And” between values parts separate entries of the source, which are not always exact repeats. Identical values can stand only once.

System: 282377-053-R-J1-PDC complex spheroid viability
Test: Anticancer human tumor 282377-053-R-J1-PDC patient-derived colon adenocarcinoma cell line growth inhibition [POLQ]
Settings: for viability, T/C: stronger effect = lower value
Description: Multicellular complex tumor spheroid response to Polymerase (POL) inhibitors (novobiocin, ART-558, RP6685) in combination with a variety of drugs and investigational agents in selected tumor cell lines
The POL inhibitors (novobiocin, ART-558, and RP6685) were evaluated both individually and in combination with standard of care and investigational anticancer small molecules within a complex spheroid model of solid tumors. . Complex spheroids include a stromal component modeled by human endothelial cells (HUVEC) and fibroblasts modeled by human mesenchymal stem cells (MSCs). The concentration ranges selected for each drug and investigational agent were based upon clinically achievable concentrations if the clinical Cmax of the agent was known.
Compounds. The drugs and investigational agents: novobiocin (NSC847541), ART-558 (NSC835418), RP-6685 (NSC848927), peposertib (NSC802822), ceralasertib (NSC780249), elimusertib (NSC800525), camonsertib (NSC841442), AZD-1390 (NSC803789), olaparib (NSC753686), talazoparib (NSC767125), rucaparib (NSC756644), sotorasib (NSC818433), MRTX-1133 (NSC836407), SN-38 (NSC673596), topotecan (NSC609699), epotoside (NSC141540), doxorubicin (NSC123127), gemcitabine (NSC613327), 5-fluorouracil (NSC19893), paclitaxel (NSC125973), vemurafenib (NSC761431), MSA-2 (NSC828583), SN-011 (NSC837082), adavosertib (NSC754352), prexasertib (NSC758257), carboplatin (NSC241240) and oxaliplatin (NSC266046), were obtained from the National Cancer Institute (NCI) Developmental Therapeutics Program Chemical Repository (21). The FDA-approved anticancer drug set is available from the Developmental Therapeutics Program at https://dtp.cancer.gov/organization/dscb/obtaining/. […] The stock solutions were prepared in dimethyl sulfoxide (DMSO, Sigma-Aldrich, St. Louis, MO, cat. D2650), except for the platinum compounds which were prepared in saline (Quality Biological, Gaithersburg, MD, cat. 114-055-101), at 800-fold the tested concentration and stored at -70 degrees C prior to their use. All drugs and investigational agents were tested over a range starting from a high concentration at or near the clinical Cmax and decreasing in half-log increments. If the clinical Cmax for an agent had not been determined, the highest concentration tested was 10 microM, except for SN-38, which was tested at a high concentration of 1 microM.
Cell Culture. All cells were maintained in an incubator at 37 degrees C and 5% CO2 with 95% humidity. The PDC lines were cultured according to standard operating procedures established by the NCI PDMR (https://pdmr.cancer.gov). Table 3 of the manuscript, lists the cell lines along with the number of the three cell types plated to form the mct-spheroids and media for tumor cell growth. After thawing, all PDC lines, except 997537-175-T-J1-PDC and 415267-285-R-J2-PDC, were cultured in Matrigel-coated flasks prepared with a working solution of 1X Ham's F-12 nutrient mix, without supplementation (Thermo Fisher Scientific, cat. 11765054), 100 U/mL penicillin-streptomycin (Thermo Fisher Scientific, cat. 15140122), and 2.5% Matrigel (Corning Inc., Corning, NY, cat. 354248) for the first three passages. The two PDC lines 997537-175-T-J1-PDC and 415267-285-R-J2-PDC were cultured on uncoated flasks. The 857933-349-R-J2-PDC line was cultured in 6C/Colon 1B media containing advanced DMEM/F-12 (Thermo Fisher Scientific, cat. 12634028), 10 mM HEPES (Thermo Fisher Scientific, cat. 15630080), 1X GlutaMAX supplement (Thermo Fisher Scientific, cat. 35050061), 0.1 mg/mL primocin (InvivoGen, San Diego, CA, cat. ant-pm-2), 10% defined fetal bovine serum, heat inactivated (HyClone Laboratories Inc., Logan, UT, cat. SH30070.03HI), 50% L-WRN conditioned media (ATCC, cat. CRL-3276), 1.25 mM N-Acetyl-L-cysteine (Sigma-Aldrich, cat. A9165), 10 mM nicotinamide (Sigma-Aldrich, cat. N0636), 1X B-27 supplement (Thermo Fisher Scientific, cat. 17504044), 1X N-2 supplement (Thermo Fisher Scientific, cat. […]
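Also: spheroids exposed to compounds for seven days.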
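For viability, T/C in this document: 100% = DMSO vehicle control viability.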

## CC(=O)O[C@H]1C(=O)[C@@]2(C)[C@H]([C@H](OC(=O)c3ccccc3)[C@]3(O)C[C@H](OC(=O)[C@H](O)[C@@H](NC(=O)c4ccccc4)c4ccccc4)C(C)=C1C3(C)C)[C@]1(OC(C)=O)CO[C@@H]1C[C@@H]2O
Compound 0.00949 µM
  viability, T/C: 93.6% and 91% and 48.6%
Compound 0.03 µM
  viability, T/C: 40.4% and 58.8% and 17.8%
Compound 0.0949 µM
  viability, T/C: 40.3% and 41.6% and 17.4%
Compound 0.3 µM
  viability, T/C: 42% and 47.9% and 19%
Compound 0.949 µM
  viability, T/C: 42.7% and 50.8% and 21.5%
Compound 3 µM
  viability, T/C: 47.6% and 61% and 28.4%

## CCc1c2c(nc3ccc(O)cc13)-c1cc3c(c(=O)n1C2)COC(=O)[C@]3(O)CC + Nc1ccc(C#CCN(C(=O)Cc2ncc(C(F)(F)F)cc2C(F)(F)F)c2ccc(F)cc2)nn1
Curve of first compound, second compound 0.0316 µM
  IC50: > 1000 nM
Curve of first compound, second compound 0.1 µM
  IC50: 945 nM
Curve of first compound, second compound 0.316 µM
  IC50: 808 nM
Curve of first compound, second compound 1 µM
  IC50: > 1000 nM
Curve of first compound, second compound 3.16 µM
  IC50: > 1000 nM
Curve of first compound, second compound 10 µM
  IC50: 860 nM
Second compound 0.0316 µM, first compound 0.00316 µM
  viability, T/C: 99.3%
Second compound 0.0316 µM, first compound 0.01 µM
  viability, T/C: 96.8%
Second compound 0.0316 µM, first compound 0.0316 µM
  viability, T/C: 80.7%
Second compound 0.0316 µM, first compound 0.1 µM
  viability, T/C: 78.3%
Second compound 0.0316 µM, first compound 0.316 µM
  viability, T/C: 69.9%
Second compound 0.0316 µM, first compound 1 µM
  viability, T/C: 58.8%
Second compound 0.1 µM, first compound 0.00316 µM
  viability, T/C: 92%
Second compound 0.1 µM, first compound 0.01 µM
  viability, T/C: 84.3%
Second compound 0.1 µM, first compound 0.0316 µM
  viability, T/C: 86%
Second compound 0.1 µM, first compound 0.1 µM
  viability, T/C: 72.8%
Second compound 0.1 µM, first compound 0.316 µM
  viability, T/C: 62.9%
Second compound 0.1 µM, first compound 1 µM
  viability, T/C: 49.4%
Second compound 0.316 µM, first compound 0.00316 µM
  viability, T/C: 101%
Second compound 0.316 µM, first compound 0.01 µM
  viability, T/C: 92.3%
Second compound 0.316 µM, first compound 0.0316 µM
  viability, T/C: 75.4%
Second compound 0.316 µM, first compound 0.1 µM
  viability, T/C: 74.4%
Second compound 0.316 µM, first compound 0.316 µM
  viability, T/C: 60.4%
Second compound 0.316 µM, first compound 1 µM
  viability, T/C: 46.8%
Second compound 1 µM, first compound 0.00316 µM
  viability, T/C: 107%
Second compound 1 µM, first compound 0.01 µM
  viability, T/C: 91.7%
Second compound 1 µM, first compound 0.0316 µM
  viability, T/C: 99.8%
Second compound 1 µM, first compound 0.1 µM
  viability, T/C: 66.9%
Second compound 1 µM, first compound 0.316 µM
  viability, T/C: 61.8%
Second compound 1 µM, first compound 1 µM
  viability, T/C: 51.6%
Second compound 3.16 µM, first compound 0.00316 µM
  viability, T/C: 108%
Second compound 3.16 µM, first compound 0.01 µM
  viability, T/C: 87.1%
Second compound 3.16 µM, first compound 0.0316 µM
  viability, T/C: 83.8%
Second compound 3.16 µM, first compound 0.1 µM
  viability, T/C: 70.6%
Second compound 3.16 µM, first compound 0.316 µM
  viability, T/C: 60.4%
Second compound 3.16 µM, first compound 1 µM
  viability, T/C: 51.5%
Second compound 10 µM, first compound 0.00316 µM
  viability, T/C: 116%
Second compound 10 µM, first compound 0.01 µM
  viability, T/C: 127%
Second compound 10 µM, first compound 0.0316 µM
  viability, T/C: 97.1%
Second compound 10 µM, first compound 0.1 µM
  viability, T/C: 80.3%
Second compound 10 µM, first compound 0.316 µM
  viability, T/C: 64.3%
Second compound 10 µM, first compound 1 µM
  viability, T/C: 46.4%

## CCc1cc2c(N3CCc4c(cc(Cn5ccnc5)cc4-c4cn(C)nc4C(F)(F)F)C3=O)cc(C)nc2c(OC)n1
Compound 0.0316 µM
  viability, T/C: 103% and 99% and 81.1%
Compound 0.1 µM
  viability, T/C: 120% and 97.4% and 84.6%
Compound 0.316 µM
  viability, T/C: 124% and 98% and 87.1%
Compound 1 µM
  viability, T/C: 144% and 89.3% and 98.1%
Compound 3.16 µM
  viability, T/C: 112% and 113% and 109%
Compound 10 µM
  viability, T/C: 72.1% and 119% and 109%
Curve of compound
  IC50: > 10000 nM

## CCc1cc2c(N3CCc4c(cc(Cn5ccnc5)cc4-c4cn(C)nc4C(F)(F)F)C3=O)ccnc2c(OC)n1
Compound 0.0316 µM
  viability, T/C: 128% and 102% and 81.9%
Compound 0.1 µM
  viability, T/C: 138% and 96.1% and 88.3%
Compound 0.316 µM
  viability, T/C: 140% and 95% and 77.2%
Compound 1 µM
  viability, T/C: 129% and 82.6% and 88.5%
Compound 3.16 µM
  viability, T/C: 121% and 93.2% and 89.4%
Compound 10 µM
  viability, T/C: 88% and 110% and 120%
Curve of compound
  IC50: > 10000 nM
